In ChEMBL document CHEMBL5724914, “Linking interpersonal differences in gut microbiota composition and drug biotransformation activity” (2024):

Tests used:
[1] = human gut metagenome, 24 h, 2 µM
[2] = human gut metagenome, 24 h, 2 µM; remark: listed apart in the source
[3] = human gut metagenome, 24 h, 2 µM; remark: listed apart in the source
[4] = (§1) The drug is tested on Z-019 corresponding to rat gut metagenome with ENA study accession number: PRJEB37062 and ENA sample accession number: ERS12561818 for biotransformation under anaerobic condition. The drug concentrations were measured over 9 timepoints collected between 0 and 24 hours of incubation by liquid-chromatography-coupled mass spectrometry (LC–MS); conditions: 2 µM
[5] = as §1, with “on Z-011” for “on Z-019”, “to mouse” for “to rat”, “number: ERS12561811” for “number: ERS12561818”; conditions: 2 µM
[6] = as §1, with “on WLS-038” for “on Z-019”, “to human” for “to rat”, “number: ERS12561745” for “number: ERS12561818”; conditions: 2 µM
[7] = as §1, with “on Z-013” for “on Z-019”, “to rabbit” for “to rat”, “number: ERS12561813” for “number: ERS12561818”; conditions: 2 µM
[8] = as §1, with “on Z-016” for “on Z-019”, “to mouse” for “to rat”, “number: ERS12561815” for “number: ERS12561818”; conditions: 2 µM
[9] = human gut metagenome, 24 h, 2 µM; remark: listed apart in the source
[10] = human gut metagenome, 24 h, 2 µM; remark: listed apart in the source
[11] = as §1, with “Z-026” for “Z-019”, “to” for “to rat gut”, “ERS12561825” for “ERS12561818”; conditions: 2 µM
[12] = as §1, with “Z-029” for “Z-019”, “ERS12561828” for “ERS12561818”; conditions: 2 µM
[13] = as §1, with “on WLS-077” for “on Z-019”, “to human” for “to rat”, “number: ERS12561750” for “number: ERS12561818”; conditions: 2 µM
[14] = as §1, with “Z-021” for “Z-019”, “to” for “to rat gut”, “ERS12561820” for “ERS12561818”; conditions: 2 µM
[15] = as §1, with “on Z-017” for “on Z-019”, “to mouse” for “to rat”, “number: ERS12561816” for “number: ERS12561818”; conditions: 2 µM
[16] = as §1, with “on Z-024” for “on Z-019”, “to pig” for “to rat”, “number: ERS12561823” for “number: ERS12561818”; conditions: 2 µM
[17] = human gut metagenome, 24 h, 2 µM; remark: listed apart in the source
[18] = as §1, with “Z-027” for “Z-019”, “to” for “to rat gut”, “ERS12561826” for “ERS12561818”; conditions: 2 µM
[19] = human gut metagenome, 24 h, 2 µM; remark: listed apart in the source
[20] = as §1, with “on WLS-350” for “on Z-019”, “to human” for “to rat”, “number: ERS12561789” for “number: ERS12561818”; conditions: 2 µM
Also: call rule not given here.

CC(=O)OCC(=O)[C@@]1(OC(C)=O)[C@@H](C)C[C@H]2[C@@H]3C[C@H](F)C4=CC(=O)C=C[C@]4(C)[C@@]3(F)[C@@H](O)C[C@@]21C [DIFLORASONE DIACETATE]
Bacterial Biotransformation [1]: Compound metabolized
Bacterial Biotransformation [2]: Compound metabolized
Bacterial Biotransformation [3]: Compound metabolized
Bacterial Biotransformation [4]: Compound NOT metabolized
Bacterial Biotransformation [5]: Compound metabolized
Bacterial Biotransformation [6]: Compound metabolized
Bacterial Biotransformation [7]: Compound metabolized
Bacterial Biotransformation [8]: Compound metabolized
Bacterial Biotransformation [9]: Compound metabolized
Bacterial Biotransformation [10]: Compound metabolized
Bacterial Biotransformation [11]: Compound NOT metabolized
Bacterial Biotransformation [12]: Compound NOT metabolized
Bacterial Biotransformation [13]: Compound metabolized
Bacterial Biotransformation [14]: Compound metabolized
Bacterial Biotransformation [15]: Compound metabolized
Bacterial Biotransformation [16]: Compound NOT metabolized
Bacterial Biotransformation [17]: Compound metabolized
Bacterial Biotransformation [18]: Compound NOT metabolized
Bacterial Biotransformation [19]: Compound metabolized
Bacterial Biotransformation [20]: Compound metabolized

CN(C)CCC=C1c2ccccc2COc2ccccc21 [DOXEPIN]
Bacterial Biotransformation [1]: Compound metabolized
Bacterial Biotransformation [2]: Compound metabolized
Bacterial Biotransformation [3]: Compound NOT metabolized
Bacterial Biotransformation [4]: Compound NOT metabolized
Bacterial Biotransformation [5]: Compound NOT metabolized
Bacterial Biotransformation [6]: Compound NOT metabolized
Bacterial Biotransformation [7]: Compound NOT metabolized
Bacterial Biotransformation [8]: Compound NOT metabolized
Bacterial Biotransformation [9]: Compound NOT metabolized
Bacterial Biotransformation [10]: Compound NOT metabolized
Bacterial Biotransformation [11]: Compound NOT metabolized
Bacterial Biotransformation [12]: Compound NOT metabolized
Bacterial Biotransformation [13]: Compound NOT metabolized
Bacterial Biotransformation [14]: Compound NOT metabolized
Bacterial Biotransformation [15]: Compound NOT metabolized
Bacterial Biotransformation [16]: Compound metabolized
Bacterial Biotransformation [17]: Compound NOT metabolized
Bacterial Biotransformation [18]: Compound NOT metabolized
Bacterial Biotransformation [19]: Compound metabolized
Bacterial Biotransformation [20]: Compound NOT metabolized

C[C@]12CCC(=O)C=C1[C@@H]1C[C@@H]1[C@H]1[C@@H]3[C@@H]4C[C@@H]4[C@@]4(CCC(=O)O4)[C@@]3(C)CC[C@@H]12 [DROSPIRENONE]
Bacterial Biotransformation [1]: Compound metabolized
Bacterial Biotransformation [2]: Compound metabolized
Bacterial Biotransformation [3]: Compound NOT metabolized
Bacterial Biotransformation [4]: Compound NOT metabolized
Bacterial Biotransformation [5]: Compound NOT metabolized
Bacterial Biotransformation [6]: Compound metabolized
Bacterial Biotransformation [7]: Compound metabolized
Bacterial Biotransformation [8]: Compound metabolized
Bacterial Biotransformation [9]: Compound NOT metabolized
Bacterial Biotransformation [10]: Compound metabolized
Bacterial Biotransformation [11]: Compound NOT metabolized
Bacterial Biotransformation [12]: Compound NOT metabolized
Bacterial Biotransformation [13]: Compound metabolized
Bacterial Biotransformation [14]: Compound metabolized
Bacterial Biotransformation [15]: Compound metabolized
Bacterial Biotransformation [16]: Compound NOT metabolized
Bacterial Biotransformation [17]: Compound metabolized
Bacterial Biotransformation [18]: Compound NOT metabolized
Bacterial Biotransformation [19]: Compound metabolized
Bacterial Biotransformation [20]: Compound NOT metabolized

C#C[C@]1(OC(C)=O)CC[C@H]2[C@@H]3CCC4=C[C@@H](OC(C)=O)CC[C@@H]4[C@H]3CC[C@@]21C [ETHYNODIOL DIACETATE]
Bacterial Biotransformation [1]: Compound metabolized
Bacterial Biotransformation [2]: Compound metabolized
Bacterial Biotransformation [3]: Compound metabolized
Bacterial Biotransformation [4]: Compound NOT metabolized
Bacterial Biotransformation [5]: Compound metabolized
Bacterial Biotransformation [6]: Compound metabolized
Bacterial Biotransformation [7]: Compound metabolized
Bacterial Biotransformation [8]: Compound metabolized
Bacterial Biotransformation [9]: Compound metabolized
Bacterial Biotransformation [10]: Compound metabolized
Bacterial Biotransformation [11]: Compound metabolized
Bacterial Biotransformation [12]: Compound NOT metabolized
Bacterial Biotransformation [13]: Compound metabolized
Bacterial Biotransformation [14]: Compound metabolized
Bacterial Biotransformation [15]: Compound metabolized
Bacterial Biotransformation [16]: Compound metabolized
Bacterial Biotransformation [17]: Compound metabolized
Bacterial Biotransformation [18]: Compound metabolized
Bacterial Biotransformation [19]: Compound metabolized
Bacterial Biotransformation [20]: Compound metabolized

CC(C)c1c(CN(C)C(C)Cc2ccccc2)n(C)n(-c2ccccc2)c1=O (stereo not given) [FAMPROFAZONE]
Bacterial Biotransformation [1]: Compound metabolized
Bacterial Biotransformation [2]: Compound metabolized
Bacterial Biotransformation [3]: Compound metabolized
Bacterial Biotransformation [4]: Compound NOT metabolized
Bacterial Biotransformation [5]: Compound metabolized
Bacterial Biotransformation [6]: Compound metabolized
Bacterial Biotransformation [7]: Compound metabolized
Bacterial Biotransformation [8]: Compound metabolized
Bacterial Biotransformation [9]: Compound metabolized
Bacterial Biotransformation [10]: Compound metabolized
Bacterial Biotransformation [11]: Compound NOT metabolized
Bacterial Biotransformation [12]: Compound NOT metabolized
Bacterial Biotransformation [13]: Compound metabolized
Bacterial Biotransformation [14]: Compound metabolized
Bacterial Biotransformation [15]: Compound NOT metabolized
Bacterial Biotransformation [16]: Compound metabolized
Bacterial Biotransformation [17]: Compound metabolized
Bacterial Biotransformation [18]: Compound metabolized
Bacterial Biotransformation [19]: Compound metabolized
Bacterial Biotransformation [20]: Compound metabolized

N=C(N)NC(=O)Cc1c(Cl)cccc1Cl [GUANFACINE]
Bacterial Biotransformation [1]: Compound NOT metabolized
Bacterial Biotransformation [2]: Compound NOT metabolized
Bacterial Biotransformation [3]: Compound NOT metabolized
Bacterial Biotransformation [4]: Compound NOT metabolized
Bacterial Biotransformation [5]: Compound NOT metabolized
Bacterial Biotransformation [6]: Compound NOT metabolized
Bacterial Biotransformation [7]: Compound NOT metabolized
Bacterial Biotransformation [8]: Compound NOT metabolized
Bacterial Biotransformation [9]: Compound NOT metabolized
Bacterial Biotransformation [10]: Compound NOT metabolized
Bacterial Biotransformation [11]: Compound NOT metabolized
Bacterial Biotransformation [12]: Compound NOT metabolized
Bacterial Biotransformation [13]: Compound NOT metabolized
Bacterial Biotransformation [14]: Compound NOT metabolized
Bacterial Biotransformation [15]: Compound NOT metabolized
Bacterial Biotransformation [16]: Compound NOT metabolized
Bacterial Biotransformation [17]: Compound NOT metabolized
Bacterial Biotransformation [18]: Compound NOT metabolized
Bacterial Biotransformation [19]: Compound NOT metabolized
Bacterial Biotransformation [20]: Compound NOT metabolized

Nc1nc(N)nc(-c2cc(Cl)ccc2Cl)n1.O=C(O)/C=C\C(=O)O [IRSOGLADINE MALEATE]
Bacterial Biotransformation [1]: Compound NOT metabolized
Bacterial Biotransformation [2]: Compound metabolized
Bacterial Biotransformation [3]: Compound NOT metabolized
Bacterial Biotransformation [4]: Compound NOT metabolized
Bacterial Biotransformation [5]: Compound NOT metabolized
Bacterial Biotransformation [6]: Compound NOT metabolized
Bacterial Biotransformation [7]: Compound NOT metabolized
Bacterial Biotransformation [8]: Compound NOT metabolized
Bacterial Biotransformation [9]: Compound NOT metabolized
Bacterial Biotransformation [10]: Compound NOT metabolized
Bacterial Biotransformation [11]: Compound NOT metabolized
Bacterial Biotransformation [12]: Compound NOT metabolized
Bacterial Biotransformation [13]: Compound NOT metabolized
Bacterial Biotransformation [14]: Compound NOT metabolized
Bacterial Biotransformation [15]: Compound NOT metabolized
Bacterial Biotransformation [16]: Compound NOT metabolized
Bacterial Biotransformation [17]: Compound NOT metabolized
Bacterial Biotransformation [18]: Compound NOT metabolized
Bacterial Biotransformation [19]: Compound NOT metabolized
Bacterial Biotransformation [20]: Compound NOT metabolized

CN1CCC(=C2c3ccccc3CC(=O)c3sccc32)CC1.O=C(O)/C=C/C(=O)O [KETOTIFEN FUMARATE]
Bacterial Biotransformation [1]: Compound metabolized
Bacterial Biotransformation [2]: Compound metabolized
Bacterial Biotransformation [3]: Compound NOT metabolized
Bacterial Biotransformation [4]: Compound NOT metabolized
Bacterial Biotransformation [5]: Compound NOT metabolized
Bacterial Biotransformation [6]: Compound NOT metabolized
Bacterial Biotransformation [7]: Compound NOT metabolized
Bacterial Biotransformation [8]: Compound NOT metabolized
Bacterial Biotransformation [9]: Compound NOT metabolized
Bacterial Biotransformation [10]: Compound NOT metabolized
Bacterial Biotransformation [11]: Compound NOT metabolized
Bacterial Biotransformation [12]: Compound NOT metabolized
Bacterial Biotransformation [13]: Compound NOT metabolized
Bacterial Biotransformation [14]: Compound NOT metabolized
Bacterial Biotransformation [15]: Compound NOT metabolized
Bacterial Biotransformation [16]: Compound NOT metabolized
Bacterial Biotransformation [17]: Compound NOT metabolized
Bacterial Biotransformation [18]: Compound NOT metabolized
Bacterial Biotransformation [19]: Compound metabolized
Bacterial Biotransformation [20]: Compound NOT metabolized
